Measured values as given in patent publication US12071434B2, “Heterocyclic compound” (Takeda Pharmaceutical Company Limited, priority 2018, dated 2024).

Legend:
mice (C57BL/6J mice) = experiment: Evaluation of wake-promoting effects by EEG and EMG in mice; type: in vivo; settings: 30 mg/kg, p.o., at zeitgeber time 5; time spent in wakefulness for 2 h after administration; male mice
Description: The wake-promoting effects were evaluated by measuring the electroencephalogram (EEG) and electromyogram (EMG) in […] mice (C57BL/6Jmice, CLEA Japan Inc., Tokyo, Japan). Under pentobarbital sodium anesthesia (50 mg/kg, intraperitoneal, Somnopentyl®, Kyoritsu Seiyaku, Tokyo, Japan), […] male […] mice were surgically implanted with EEG electrode and EMG electrode. Bilateral EEG leads (Biotex, Kyoto, Japan) were stereotaxically positioned at the parietal area and secured to the cranium with stainless-steel screws in contact with the dura. Bilateral EMG leads (Biotex) were implanted into the back cervical muscles. After at least a 1-week recovery period in home cages, the […] mice were habituated to the recording chamber located in an electrically shielded soundproof room. After habituated, the cortical EEG and EMG signals were recorded using VitalRecorder® (Kissei Comtec Co., Ltd., Nagano, Japan). The signals were automatically scored in 4 sec epochs by a sleep scoring system (SleepSign®, Kissei Comtec Co., Ltd.). Test compound (30 mg/kg, Table 3X-1) dissolved in a mixed solution containing 10% DMSO, 10% Cremophor EL, 20% PEG400 and 60% H2O, or vehicle (i.e., a mixed solution containing 10% DMSO, 10% Cremophor EL, 20% PEG400 and 60% H2O) was administered orally (p.o.) to the […] mice at zeitgeber time 5 in a volume of 10 mL/kg. The EEG and EMG recordings were performed for 2 h after the compound administration. The time spent in wakefulness for 2 h after administration (% of vehicle treatment) was calculated by using SleepSign.

[1] = molecular target: T1, human orexin type 2 receptor (Homo sapiens, UniProt O43614); experiment: Measurement of orexin type 2 receptor agonist activity (calcium fluorescence, Fluo-4 AM, FDSS) in CHO cells forcibly expressing human OX2 receptor; type: cell-based; settings: test compound 3 μM, DMSO = 0%, orexin A (human) 10 nM = 100%
T1 construct: expressed in transfected cells
T1 sequence (O43614 1-444): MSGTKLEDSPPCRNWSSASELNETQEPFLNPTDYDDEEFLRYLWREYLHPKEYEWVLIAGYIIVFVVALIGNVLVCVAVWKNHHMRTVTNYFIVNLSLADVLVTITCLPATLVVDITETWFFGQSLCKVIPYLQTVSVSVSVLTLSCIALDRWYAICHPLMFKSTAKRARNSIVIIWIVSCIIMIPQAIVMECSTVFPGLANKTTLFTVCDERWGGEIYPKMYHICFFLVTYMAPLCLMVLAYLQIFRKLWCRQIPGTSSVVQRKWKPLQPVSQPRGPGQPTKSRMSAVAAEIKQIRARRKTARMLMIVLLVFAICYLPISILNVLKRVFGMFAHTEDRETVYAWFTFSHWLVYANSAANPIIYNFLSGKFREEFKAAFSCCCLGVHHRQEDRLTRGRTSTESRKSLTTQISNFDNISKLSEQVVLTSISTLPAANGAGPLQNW
Summary of the method: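 CHO-dhfr cells stably expressing human OX2 receptor, loaded with Fluo-4 AM plus probenecid for 30 min at 37 °C, then 30 min at room temperature. Calcium fluorescence read for about 2 min 40 s after compound addition. Activity (%) scaled between DMSO (0%) and 10 nM human orexin A (100%).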

0X2R agonist activity (3 μM, %) [1]: 94%
Compound: CC(C)n1cnc2c(c1=O)[C@@H](Cc1cccc(-c3ccccc3)c1F)[C@@H](NS(=O)(=O)C1(F)CC1)CC2 [Example 180, 1-fluoro-N-[(5R,6S)-5-[(2-fluoro[1,1′-biphenyl]-3-yl)methyl]-4-oxo-3-(propan-2-yl)-3,4,5,6,7,8-hexahydroquinazolin-6-yl]cyclopropane-1-sulfonamide]
Wakefulness time (% of vehicle treatment) (Mean, n = 3) (mice (C57BL/6J mice)): 197.28 % of vehicle treatment
